The test system of this data set is Balb/c mice. Put plainly: Oligodeoxynucleotides as adjuvants: immunization with M7A-alpha peptide plus oligo; presence and severity of inflammatory heart disease. It counts as in vivo. Particulars: for Prevalence / Severity: day 21; for immunostimulatory / adjuvant activity: result in words, with M7A-alpha peptide, in the absence of Freund's complete adjuvant; for Severity: score ± SD, scale as in Example 1, adjuvant given with M7A-alpha peptide.

The mark [1] stands for this setting: adjuvant given with about 50 micrograms M7A-alpha peptide, days 0 and 7, oligos about 10 nmol with Freund's incomplete adjuvant.

For the sequence “GTACTGACGTTTACTCTTGG (chemistry not given here) [CpG, oligonucleotide with CpG motif derived from DNA encoding a 60 kDa cysteine rich outer membrane protein from Chlamydia trachomatis]”, the “immunostimulatory / adjuvant activity” value is reported as “potent immunostimulator” and the Severity came out at 1.2 ± 0.4. In addition, the Prevalence (about 10 nmol oligo without peptide (Peptide: None)) was 0/5. The Prevalence under setting [1] is listed as 5/5.

Consider “GTACTGAGCTTTACTCTTGG (chemistry not given here) [non-CpG, counterpart of the CpG oligo not containing the CpG motif, reference compound]”, for which the “immunostimulatory / adjuvant activity” value is listed as “hardly effective as an adjuvant” and the Severity was determined as 1.0 ± 0.0. Moreover, the Prevalence under setting [1] was 1/5.
